According to ChEMBL document CHEMBL5316333, “Potent Long-Acting Inhibitors Targeting the HIV-1 Capsid Based on a Versatile Quinazolin-4-one Scaffold” (J Med Chem, 2023):

What was measured:
[1] = tested on: Human immunodeficiency virus 1; test: Antiviral activity against HIV-1 NLRep-Rluc infected in human MT2 cells assessed as inhibition of viral growth incubated for 96 hrs by renilla luciferase assay; format: functional, organism-based
[2] = Clearance in Sprague-Dawley rat at 1 mg/kg, iv and measured upto 96 hrs by LC-MS/MS analysis; format: ADME, organism-based; details: in vivo
[3] = tested on: MT2; test: Cytotoxicity against human MT2 cells assessed as reduction in cell viability incubated for 4 days by XTT assay; format: toxicity, cell-based; details: mt2, 96 h, 96 h, time 4 day
[4] = Selectivity index, ratio of CC50 for cytotoxicity against human MT2 cells to EC50 for antiviral activity against HIV-1 NLRep-Rluc infected in human MT2 cells; format: toxicity, cell-based; details: read-out: Ratio CC50/EC50
[5] = Human immunodeficiency virus 1, NLRep-Rluc, MT2, 96 h

## Cn1nc(NS(C)(=O)=O)c2c(Cl)ccc(-n3c([C@H](Cc4cc(F)cc(F)c4)NC(=O)Cn4nc(C(F)F)c5c4C(F)(F)[C@@H]4C[C@H]54)nc4cc(N5CCOCC5)ccc4c3=O)c21
[1]; [5]
  EC50: 0.037 nM
[2]
  clearance: 16 mL/min/kg

## Cn1nc(NS(C)(=O)=O)c2c(Cl)ccc(-n3c([C@H](Cc4cc(F)cc(F)c4)NC(=O)Cn4nc(C(F)F)c5c4C(F)(F)[C@@H]4C[C@H]54)nc4cc(N5CCO[C@@H](C(F)(F)F)C5)ccc4c3=O)c21
[1]; [5]
  EC50: 0.081 nM

## CCN(CC)c1ccc2c(=O)n(-c3ccc(Cl)c4c(NS(C)(=O)=O)nn(C)c34)c([C@H](Cc3cc(F)cc(F)c3)NC(=O)Cn3nc(C(F)F)c4c3C(F)(F)[C@@H]3C[C@H]43)nc2c1
[1]; [5]
  EC50: 0.2 nM

## COc1cccc2nc([C@H](Cc3cc(F)cc(F)c3)NC(=O)Cn3nc(C(F)F)c4c3C(F)(F)[C@@H]3C[C@H]43)n(-c3ccc(Cl)c4c(NS(C)(=O)=O)nn(C)c34)c(=O)c12 (stereo in doubt; 12d)
[3]
  CC50: > 20000 nM
[1]; mt2
  EC50: 0.11 nM
[4]
  selectivity ratio: > 1000

## COc1ccc2nc([C@H](Cc3cc(F)cc(F)c3)NC(=O)Cn3nc(C(F)F)c4c3C(F)(F)[C@@H]3C[C@H]43)n(-c3ccc(Cl)c4c(NS(C)(=O)=O)nn(C)c34)c(=O)c2c1 (stereo in doubt; 13c)
[1]; mt2
  EC50: 38 nM

## Cn1nc(NS(C)(=O)=O)c2c(Cl)ccc(-n3c([C@H](Cc4cc(F)cc(F)c4)NC(=O)Cn4nc(C(F)F)c5c4C(F)(F)[C@@H]4C[C@H]54)nc4cc(N5CCC5)ccc4c3=O)c21
[1]; [5]
  EC50: 0.11 nM

## COc1cccc2nc([C@H](Cc3cc(F)cc(F)c3)NC(=O)Cn3nc(C(F)F)c4c3C(F)(F)[C@@H]3C[C@H]43)n(-c3ccc(Cl)c4c(NS(C)(=O)=O)nn(C)c34)c(=O)c12 (stereo in doubt; 13d)
[3]
  CC50: > 1000 nM
[1]; mt2
  EC50: 130 nM

## Cn1nc(NS(C)(=O)=O)c2c(Cl)ccc(-n3c([C@H](Cc4cc(F)cc(F)c4)NC(=O)Cn4nc(C(F)F)c5c4C(F)(F)[C@@H]4C[C@H]54)nc4cc(N5CCS(=O)(=O)CC5)ccc4c3=O)c21
[1]; [5]
  EC50: 0.47 nM

## COc1cc(OC)c2c(=O)n(-c3ccc(Cl)c4c(NS(C)(=O)=O)nn(C)c34)c([C@H](Cc3cc(F)cc(F)c3)NC(=O)Cn3nc(C(F)F)c4c3C(F)(F)[C@@H]3C[C@H]43)nc2c1
[1]; [5]
  EC50: 0.064 nM
[2]
  clearance: 65 mL/min/kg

## Cn1nc(NS(C)(=O)=O)c2c(Cl)ccc(-n3c([C@H](Cc4cc(F)cc(F)c4)NC(=O)Cn4nc(C(F)F)c5c4C(F)(F)[C@@H]4C[C@H]54)nc4cc(C#N)ccc4c3=O)c21
[1]; [5]
  EC50: 0.017 nM
[2]
  clearance: 82 mL/min/kg

## Cn1nc(NS(C)(=O)=O)c2c(Cl)ccc(-n3c([C@H](Cc4cc(F)cc(F)c4)NC(=O)Cn4nc(C(F)F)c5c4C(F)(F)[C@@H]4C[C@H]54)nc4cc(N5CCCOCC5)ccc4c3=O)c21
[1]; [5]
  EC50: 0.13 nM

## Cn1nc(NS(C)(=O)=O)c2c(Cl)ccc(-n3c([C@H](Cc4cc(F)cc(F)c4)NC(=O)Cn4nc(C(F)F)c5c4C(F)(F)[C@@H]4C[C@H]54)nc4cc(N5C6COCC5COC6)ccc4c3=O)c21
[1]; [5]
  EC50: 0.24 nM

## Cn1nc(NS(C)(=O)=O)c2c(Cl)ccc(-n3c([C@H](Cc4cc(F)cc(F)c4)NC(=O)Cn4nc(C(F)F)c5c4C(F)(F)[C@@H]4C[C@H]54)nc4cc(C(C)(F)F)ccc4c3=O)c21
[1]; [5]
  EC50: 0.078 nM
[2]
  clearance: 2.8 mL/min/kg

## Cn1nc(NS(C)(=O)=O)c2c(Cl)ccc(-n3c([C@H](Cc4cc(F)cc(F)c4)NC(=O)Cn4nc(C(F)F)c5c4C(F)(F)[C@@H]4C[C@H]54)nc4cc(N5CC(C)(C)OC(C)(C)C5)ccc4c3=O)c21
[1]; [5]
  EC50: 0.12 nM

## Cn1nc(NS(C)(=O)=O)c2c(Cl)ccc(-n3c([C@H](Cc4cc(F)cc(F)c4)NC(=O)Cn4nc(C(F)F)c5c4C(F)(F)[C@@H]4C[C@H]54)nc4cc(S(C)(=O)=O)ccc4c3=O)c21
[1]; [5]
  EC50: 0.15 nM
[2]
  clearance: 78 mL/min/kg

## Cn1nc(NS(C)(=O)=O)c2c(Cl)ccc(-n3c([C@H](Cc4cc(F)cc(F)c4)NC(=O)Cn4nc(C(F)F)c5c4C(F)(F)[C@@H]4C[C@H]54)nc4ccccc4c3=O)c21 (stereo in doubt; 13a)
[3]
  CC50: > 1000 nM
[1]; mt2
  EC50: 81 nM

## CO[C@@H]1CCN(c2ccc3c(=O)n(-c4ccc(Cl)c5c(NS(C)(=O)=O)nn(C)c45)c([C@H](Cc4cc(F)cc(F)c4)NC(=O)Cn4nc(C(F)F)c5c4C(F)(F)[C@@H]4C[C@H]54)nc3c2)C1
[1]; [5]
  EC50: 0.058 nM

## Cn1nc(NS(C)(=O)=O)c2c(Cl)ccc(-n3c([C@H](Cc4cc(F)cc(F)c4)NC(=O)Cn4nc(C(F)F)c5c4C(F)(F)[C@@H]4C[C@H]54)nc4ccccc4c3=O)c21 (stereo in doubt; 12a)
[3]
  CC50: > 20000 nM
[1]; mt2
  EC50: 0.049 nM
[2]
  clearance: 30 mL/min/kg
[4]
  selectivity ratio: > 1000

## COc1cccc2c(=O)n(-c3ccc(Cl)c4c(NS(C)(=O)=O)nn(C)c34)c([C@H](Cc3cc(F)cc(F)c3)NC(=O)Cn3nc(C(F)F)c4c3C(F)(F)[C@@H]3C[C@H]43)nc12
[1]; [5]
  EC50: 0.095 nM

## Cn1nc(NS(C)(=O)=O)c2c(Cl)ccc(-n3c([C@H](Cc4cc(F)cc(F)c4)NC(=O)Cn4nc(C(F)F)c5c4C(F)(F)[C@@H]4C[C@H]54)nc4cc(N5CC6(COC6)C5)ccc4c3=O)c21
[1]; [5]
  EC50: 0.064 nM
[2]
  clearance: 18 mL/min/kg

## COC1CCN(c2ccc3c(=O)n(-c4ccc(Cl)c5c(NS(C)(=O)=O)nn(C)c45)c([C@H](Cc4cc(F)cc(F)c4)NC(=O)Cn4nc(C(F)F)c5c4C(F)(F)[C@@H]4C[C@H]54)nc3c2)CC1
[1]; [5]
  EC50: 0.12 nM

## Cn1nc(NS(C)(=O)=O)c2c(Cl)ccc(-n3c([C@H](Cc4cc(F)cc(F)c4)NC(=O)Cn4nc(C(F)F)c5c4C(F)(F)[C@@H]4C[C@H]54)nc4cc(N5CCC6(CC5)COC6)ccc4c3=O)c21
[1]; [5]
  EC50: 0.13 nM

## Cn1nc(NS(C)(=O)=O)c2c(Cl)ccc(-n3c([C@H](Cc4cc(F)cc(F)c4)NC(=O)Cn4nc(C(F)F)c5c4C(F)(F)[C@@H]4C[C@H]54)nc4cc(N5CCCC5)ccc4c3=O)c21
[1]; [5]
  EC50: 0.23 nM

## Cn1nc(NS(C)(=O)=O)c2c(Cl)ccc(-n3c([C@H](Cc4cc(F)cc(F)c4)NC(=O)Cn4nc(C(F)F)c5c4C(F)(F)[C@@H]4C[C@H]54)nc4cc(F)ccc4c3=O)c21
[1]; [5]
  EC50: 0.041 nM
[2]
  clearance: 40 mL/min/kg

## Cn1nc(NS(C)(=O)=O)c2c(Cl)ccc(-n3c([C@H](Cc4cc(F)cc(F)c4)NC(=O)Cn4nc(C(F)F)c5c4C(F)(F)[C@@H]4C[C@H]54)nc4cc(C5CC5)ccc4c3=O)c21
[1]; [5]
  EC50: 0.14 nM
[2]
  clearance: 4.3 mL/min/kg

## Cn1nc(NS(C)(=O)=O)c2c(Cl)ccc(-n3c([C@H](Cc4cc(F)cc(F)c4)NC(=O)Cn4nc(C(F)F)c5c4C(F)(F)[C@@H]4C[C@H]54)nc4cc(Br)ccc4c3=O)c21
[1]; [5]
  EC50: 0.053 nM

## Cn1nc(NS(C)(=O)=O)c2c(Cl)ccc(-n3c([C@H](Cc4cc(F)cc(F)c4)NC(=O)Cn4nc(C(F)F)c5c4C(F)(F)[C@@H]4C[C@H]54)nc4cc(Cl)ccc4c3=O)c21
[1]; [5]
  EC50: 0.058 nM

## Cn1nc(NS(C)(=O)=O)c2c(Cl)ccc(-n3c([C@H](Cc4cc(F)cc(F)c4)NC(=O)Cn4nc(C(F)F)c5c4C(F)(F)[C@@H]4C[C@H]54)nc4cc(N5[C@@H]6CC[C@H]5COC6)ccc4c3=O)c21
[1]; [5]
  EC50: 0.057 nM

## Cn1nc(NS(C)(=O)=O)c2c(Cl)ccc(-n3c([C@H](Cc4cc(F)cc(F)c4)NC(=O)Cn4nc(C(F)F)c5c4C(F)(F)[C@@H]4C[C@H]54)nc4cc(N5CCOC(C)(C)C5)ccc4c3=O)c21
[1]; [5]
  EC50: 0.05 nM
[2]
  clearance: 9.6 mL/min/kg

## Cn1nc(NS(C)(=O)=O)c2c(Cl)ccc(-n3c([C@H](Cc4cc(F)cc(F)c4)NC(=O)Cn4nc(C(F)F)c5c4C(F)(F)[C@@H]4C[C@H]54)nc4cc(C(C)(C)C)ccc4c3=O)c21
[1]; [5]
  EC50: 0.13 nM
[2]
  clearance: 19 mL/min/kg

## COc1ccc2c(=O)n(-c3ccc(Cl)c4c(NS(C)(=O)=O)nn(C)c34)c([C@H](Cc3cc(F)cc(F)c3)NC(=O)Cn3nc(C(F)F)c4c3C(F)(F)[C@@H]3C[C@H]43)nc2c1 (stereo in doubt; 13b)
[3]
  CC50: > 1000 nM
[1]; mt2
  EC50: 9.8 nM

## Cn1nc(NS(C)(=O)=O)c2c(Cl)ccc(-n3c([C@H](Cc4cc(F)cc(F)c4)NC(=O)Cn4nc(C(F)F)c5c4C(F)(F)[C@@H]4C[C@H]54)nc4cccc(F)c4c3=O)c21
[1]; [5]
  EC50: 0.13 nM

## Cn1nc(NS(C)(=O)=O)c2c(Cl)ccc(-n3c([C@H](Cc4cc(F)cc(F)c4)NC(=O)Cn4nc(C(F)F)c5c4C(F)(F)[C@@H]4C[C@H]54)nc4cc(N5C[C@H]6CC[C@@H](C5)O6)ccc4c3=O)c21
[1]; [5]
  EC50: 0.064 nM

## Cn1nc(NS(C)(=O)=O)c2c(Cl)ccc(-n3c([C@H](Cc4cc(F)cc(F)c4)NC(=O)Cn4nc(C(F)F)c5c4C(F)(F)[C@@H]4C[C@H]54)nc4cc(N5CCCCC5)ccc4c3=O)c21
[1]; [5]
  EC50: 0.27 nM
[2]
  clearance: 11 mL/min/kg

## COc1ccc2c(=O)n(-c3ccc(Cl)c4c(NS(C)(=O)=O)nn(C)c34)c([C@H](Cc3cc(F)cc(F)c3)NC(=O)Cn3nc(C(F)F)c4c3C(F)(F)[C@@H]3C[C@H]43)nc2c1F
[1]; [5]
  EC50: 0.13 nM
[2]
  clearance: 11 mL/min/kg

## Cn1nc(NS(C)(=O)=O)c2c(Cl)ccc(-n3c([C@H](Cc4cc(F)cc(F)c4)NC(=O)Cn4nc(C(F)F)c5c4C(F)(F)[C@@H]4C[C@H]54)nc4cc(N5CCOCC5=O)ccc4c3=O)c21
[1]; [5]
  EC50: 0.11 nM

## Cn1nc(NS(C)(=O)=O)c2c(Cl)ccc(-n3c([C@H](Cc4cc(F)cc(F)c4)NC(=O)Cn4nc(C(F)F)c5c4C(F)(F)[C@@H]4C[C@H]54)nc4cc(C(C)(C)O)ccc4c3=O)c21
[1]; [5]
  EC50: 0.15 nM
[2]
  clearance: 26 mL/min/kg

## CN1CCN(c2ccc3c(=O)n(-c4ccc(Cl)c5c(NS(C)(=O)=O)nn(C)c45)c([C@H](Cc4cc(F)cc(F)c4)NC(=O)Cn4nc(C(F)F)c5c4C(F)(F)[C@@H]4C[C@H]54)nc3c2)CC1
[1]; [5]
  EC50: 0.15 nM
[2]
  clearance: 60 mL/min/kg

## C[C@@H]1CN(c2ccc3c(=O)n(-c4ccc(Cl)c5c(NS(C)(=O)=O)nn(C)c45)c([C@H](Cc4cc(F)cc(F)c4)NC(=O)Cn4nc(C(F)F)c5c4C(F)(F)[C@@H]4C[C@H]54)nc3c2)C[C@H](C)N1C
[1]; [5]
  EC50: 0.091 nM

## Cn1nc(NS(C)(=O)=O)c2c(Cl)ccc(-n3c([C@H](Cc4cc(F)cc(F)c4)NC(=O)Cn4nc(C(F)F)c5c4C(F)(F)[C@@H]4C[C@H]54)nc4ccc(F)cc4c3=O)c21
[1]; [5]
  EC50: 0.045 nM
[2]
  clearance: 29 mL/min/kg
